IC50 data for six compounds are collected here from ChEMBL document CHEMBL1134023, “The discovery of RFI-641 as a potent and selective inhibitor of the respiratory syncytial virus” (Bioorg Med Chem Lett, 2001).

For assay [1], the system named is Respiratory syncytial virus. The assay can be described thus: In vitro inhibitory activity against respiratory syncytial virus (RSV). It is filed as functional, organism-based. Particulars: human respiratory syncytial virus.
A further assay concerns Human betaherpesvirus 5. The assay can be described thus: Inhibitory concentration required against HCMV (Human cytomegalovirus) by using HCMV AD169 and assay is via an indicator gene in the virus. Format: functional, organism-based.
Assay [2] is described as follows: Inhibitory concentration required against HSV-1 (Herpes simplex virus) by using HSV-1 in ELISA assay. Format: functional. On the technique in general: An ELISA detects its analyte on a solid surface through an enzyme-linked reagent.
The test system of a further assay is Human orthopneumovirus. The assay can be described thus: In vitro inhibitory concentration against HRSV (Human respiratory syncytial virus) by using RSV A2 and the assay is by ELISA. Format: functional, organism-based.

Some results are limits rather than exact numbers.

A word on the IC50: it is the concentration at which inhibition is half-maximal. Low readings indicate higher potency, high ones lower potency. For the compound `NC(=O)CCN(CCC(N)=O)S(=O)(=O)c1cccc(Nc2nc(Nc3cccc(S(=O)(=O)N(CCC(N)=O)CCC(N)=O)c3)nc(Nc3ccc(/C=C/c4ccc(Nc5nc(Nc6cccc(S(=O)(=O)N(CCC(N)=O)CCC(N)=O)c6)nc(Nc6cccc(S(=O)(=O)N(CCC(N)=O)CCC(N)=O)c6)n5)cc4S(=O)(=O)O)c(S(=O)(=O)O)c3)n2)c1`, the half-inhibitory concentration (IC50) in assay [1] was determined as 150 nM.
Take `NC(=O)CCCN(CCCC(N)=O)S(=O)(=O)c1cccc(Nc2nc(Nc3cccc(S(=O)(=O)N(CCCC(N)=O)CCCC(N)=O)c3)nc(Nc3ccc(-c4ccc(Nc5nc(Nc6cccc(S(=O)(=O)N(CCCC(N)=O)CCCC(N)=O)c6)nc(Nc6cccc(S(=O)(=O)N(CCCC(N)=O)CCCC(N)=O)c6)n5)cc4S(=O)(=O)O)c(S(=O)(=O)O)c3)n2)c1`: the values for the concentration for half-maximal inhibition (IC50) (with Human betaherpesvirus 5; in assay [2]; in the assay on Human orthopneumovirus) were 5800 nM, 8500 nM and 100 nM, respectively.
Taken in the same sequence, the figures for `NC(=O)CCNS(=O)(=O)c1cccc(Nc2nc(Nc3cccc(S(=O)(=O)NCCC(N)=O)c3)nc(Nc3ccc(-c4ccc(Nc5nc(Nc6cccc(S(=O)(=O)NCCC(N)=O)c6)nc(Nc6cccc(S(=O)(=O)NCCC(N)=O)c6)n5)cc4S(=O)(=O)O)c(S(=O)(=O)O)c3)n2)c1` were 2640 nM, 23200 nM and 660 nM.
For the compound `NC(=O)CCN(CCC(N)=O)S(=O)(=O)c1cccc(Nc2nc(Nc3cccc(S(=O)(=O)N(CCC(N)=O)CCC(N)=O)c3)nc(Nc3ccc(-c4ccc(Nc5nc(Nc6cccc(S(=O)(=O)N(CCC(N)=O)CCC(N)=O)c6)nc(Nc6cccc(S(=O)(=O)N(CCC(N)=O)CCC(N)=O)c6)n5)cc4S(=O)(=O)O)c(S(=O)(=O)O)c3)n2)c1`, the IC50 in assay [1] came to 50 nM; with Human betaherpesvirus 5, 13900 nM; in assay [2], 19500 nM; with Human orthopneumovirus, 80 nM.
For the compound `NC(=O)CN(CC(N)=O)S(=O)(=O)c1cccc(Nc2nc(Nc3cccc(S(=O)(=O)N(CC(N)=O)CC(N)=O)c3)nc(Nc3ccc(-c4ccc(Nc5nc(Nc6cccc(S(=O)(=O)N(CC(N)=O)CC(N)=O)c6)nc(Nc6cccc(S(=O)(=O)N(CC(N)=O)CC(N)=O)c6)n5)cc4S(=O)(=O)O)c(S(=O)(=O)O)c3)n2)c1` [RF-1461], the half-maximal inhibitory concentration (IC50) came out at 2550 nM with Human betaherpesvirus 5, 7700 nM in assay [2] and 50 nM in the assay on Human orthopneumovirus.
Taken in the same sequence, the figures for `NC(=O)CNS(=O)(=O)c1cccc(Nc2nc(Nc3cccc(S(=O)(=O)NCC(N)=O)c3)nc(Nc3ccc(-c4ccc(Nc5nc(Nc6cccc(S(=O)(=O)NCC(N)=O)c6)nc(Nc6cccc(S(=O)(=O)NCC(N)=O)c6)n5)cc4S(=O)(=O)O)c(S(=O)(=O)O)c3)n2)c1` were 1370 nM, greater than 25000 nM and 270 nM.
